Reference: patent US8192962B2, “Processes for detecting toxic substances” (Daikin Industries, Ltd., priority 2001, dated 2012)

System: Unknown protein yeast genes
Assay: DNA chip mRNA expression in yeast, unknown protein yeast genes (Table 1)
Assay type: cell-based, Saccharomyces cerevisiae S288C
Method in brief: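 Cells were grown at 25° C. in YPD, treated at logarithmic phase for 2 h with a chemical at a concentration inhibiting growth but not causing death, and compared with untreated cultures. Labeled cDNA was hybridized to a DNA chip carrying all yeast genes, and the expression ratio was taken from scanner fluorescence.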

## manganese ethylenebis(dithiocarbamate) [(8)]
Yeast gene YAL053W, incubated two hours with chemical substance
  The level of expressed mRNA in the presence of chemical substance/The level of expressed mRNA in the absence of chemical substance: 0.8
Yeast gene YBL048W
  The level of expressed mRNA in the presence of chemical substance/The level of expressed mRNA in the absence of chemical substance: 1.2
Yeast gene YBL107C
  The level of expressed mRNA in the presence of chemical substance/The level of expressed mRNA in the absence of chemical substance: 1.9
Yeast gene YDL072C, incubated two hours with chemical substance
  The level of expressed mRNA in the presence of chemical substance/The level of expressed mRNA in the absence of chemical substance: 0.8
Yeast gene YDL204W, incubated two hours with chemical substance
  The level of expressed mRNA in the presence of chemical substance/The level of expressed mRNA in the absence of chemical substance: 1.1
Yeast gene YDL222C, incubated two hours with chemical substance
  The level of expressed mRNA in the presence of chemical substance/The level of expressed mRNA in the absence of chemical substance: 0.7
Yeast gene YDR330W, incubated two hours with chemical substance
  The level of expressed mRNA in the presence of chemical substance/The level of expressed mRNA in the absence of chemical substance: 1.1
Yeast gene YDR411C, incubated two hours with chemical substance
  The level of expressed mRNA in the presence of chemical substance/The level of expressed mRNA in the absence of chemical substance: 0.9
Yeast gene YDR511W, incubated two hours with chemical substance
  The level of expressed mRNA in the presence of chemical substance/The level of expressed mRNA in the absence of chemical substance: 1.7
Yeast gene YDR545W, incubated two hours with chemical substance
  The level of expressed mRNA in the presence of chemical substance/The level of expressed mRNA in the absence of chemical substance: 0.6
Yeast gene YEL001C, incubated two hours with chemical substance
  The level of expressed mRNA in the presence of chemical substance/The level of expressed mRNA in the absence of chemical substance: 1.2
Yeast gene YER004W, incubated two hours with chemical substance
  The level of expressed mRNA in the presence of chemical substance/The level of expressed mRNA in the absence of chemical substance: 1.1
Yeast gene YER035W, incubated two hours with chemical substance
  The level of expressed mRNA in the presence of chemical substance/The level of expressed mRNA in the absence of chemical substance: 1.2
Yeast gene YER079W, incubated two hours with chemical substance
  The level of expressed mRNA in the presence of chemical substance/The level of expressed mRNA in the absence of chemical substance: 1.4
Yeast gene YER106W, incubated two hours with chemical substance
  The level of expressed mRNA in the presence of chemical substance/The level of expressed mRNA in the absence of chemical substance: 1.2
Yeast gene YER158C, incubated two hours with chemical substance
  The level of expressed mRNA in the presence of chemical substance/The level of expressed mRNA in the absence of chemical substance: 0.9
Yeast gene YER163C, incubated two hours with chemical substance
  The level of expressed mRNA in the presence of chemical substance/The level of expressed mRNA in the absence of chemical substance: 1.4
Yeast gene YER175C, incubated two hours with chemical substance
  The level of expressed mRNA in the presence of chemical substance/The level of expressed mRNA in the absence of chemical substance: 1.1
Yeast gene YFL006W, incubated two hours with chemical substance
  The level of expressed mRNA in the presence of chemical substance/The level of expressed mRNA in the absence of chemical substance: 1.0
Yeast gene YFL010C, incubated two hours with chemical substance
  The level of expressed mRNA in the presence of chemical substance/The level of expressed mRNA in the absence of chemical substance: 1.0
Yeast gene YFL024C
  The level of expressed mRNA in the presence of chemical substance/The level of expressed mRNA in the absence of chemical substance: 0.9
Yeast gene YFL032W, incubated two hours with chemical substance
  The level of expressed mRNA in the presence of chemical substance/The level of expressed mRNA in the absence of chemical substance: 0.4
Yeast gene YGL037C, incubated two hours with chemical substance
  The level of expressed mRNA in the presence of chemical substance/The level of expressed mRNA in the absence of chemical substance: 1.2
Yeast gene YGL047W, incubated two hours with chemical substance
  The level of expressed mRNA in the presence of chemical substance/The level of expressed mRNA in the absence of chemical substance: 1.1
Yeast gene YGL053W, incubated two hours with chemical substance
  The level of expressed mRNA in the presence of chemical substance/The level of expressed mRNA in the absence of chemical substance: 1.2
Yeast gene YGL121C
  The level of expressed mRNA in the presence of chemical substance/The level of expressed mRNA in the absence of chemical substance: 3.0
Yeast gene YGL199C, incubated two hours with chemical substance
  The level of expressed mRNA in the presence of chemical substance/The level of expressed mRNA in the absence of chemical substance: 0.7
Yeast gene YGR101W, incubated two hours with chemical substance
  The level of expressed mRNA in the presence of chemical substance/The level of expressed mRNA in the absence of chemical substance: 0.8
Yeast gene YGR110W
  The level of expressed mRNA in the presence of chemical substance/The level of expressed mRNA in the absence of chemical substance: 1.5
Yeast gene YGR130C, incubated two hours with chemical substance
  The level of expressed mRNA in the presence of chemical substance/The level of expressed mRNA in the absence of chemical substance: 0.9
Yeast gene YGR154C, incubated two hours with chemical substance
  The level of expressed mRNA in the presence of chemical substance/The level of expressed mRNA in the absence of chemical substance: 1.7
Yeast gene YGR221C, incubated two hours with chemical substance
  The level of expressed mRNA in the presence of chemical substance/The level of expressed mRNA in the absence of chemical substance: 1.1
Yeast gene YHR138C, incubated two hours with chemical substance
  The level of expressed mRNA in the presence of chemical substance/The level of expressed mRNA in the absence of chemical substance: 1.4
Yeast gene YHR199C, incubated two hours with chemical substance
  The level of expressed mRNA in the presence of chemical substance/The level of expressed mRNA in the absence of chemical substance: 1.0
Yeast gene YIL023C, incubated two hours with chemical substance
  The level of expressed mRNA in the presence of chemical substance/The level of expressed mRNA in the absence of chemical substance: 0.7
Yeast gene YIL041W, incubated two hours with chemical substance
  The level of expressed mRNA in the presence of chemical substance/The level of expressed mRNA in the absence of chemical substance: 0.9
Yeast gene YIL087C, incubated two hours with chemical substance
  The level of expressed mRNA in the presence of chemical substance/The level of expressed mRNA in the absence of chemical substance: 1.1
Yeast gene YJL057C, incubated two hours with chemical substance
  The level of expressed mRNA in the presence of chemical substance/The level of expressed mRNA in the absence of chemical substance: 1.5
Yeast gene YJL066C, incubated two hours with chemical substance
  The level of expressed mRNA in the presence of chemical substance/The level of expressed mRNA in the absence of chemical substance: 0.8
Yeast gene YJL082W, incubated two hours with chemical substance
  The level of expressed mRNA in the presence of chemical substance/The level of expressed mRNA in the absence of chemical substance: 0.9
Yeast gene YJL151C, incubated two hours with chemical substance
  The level of expressed mRNA in the presence of chemical substance/The level of expressed mRNA in the absence of chemical substance: 0.8
Yeast gene YJL152W, incubated two hours with chemical substance
  The level of expressed mRNA in the presence of chemical substance/The level of expressed mRNA in the absence of chemical substance: 0.7
Yeast gene YJL161W, incubated two hours with chemical substance
  The level of expressed mRNA in the presence of chemical substance/The level of expressed mRNA in the absence of chemical substance: 1.4
Yeast gene YJL171C, incubated two hours with chemical substance
  The level of expressed mRNA in the presence of chemical substance/The level of expressed mRNA in the absence of chemical substance: 0.9
Yeast gene YJR008W, incubated two hours with chemical substance
  The level of expressed mRNA in the presence of chemical substance/The level of expressed mRNA in the absence of chemical substance: 1.1
Yeast gene YJR054W, incubated two hours with chemical substance
  The level of expressed mRNA in the presence of chemical substance/The level of expressed mRNA in the absence of chemical substance: 1.6
Yeast gene YKL071W
  The level of expressed mRNA in the presence of chemical substance/The level of expressed mRNA in the absence of chemical substance: 24.7
Yeast gene YKL086W, incubated two hours with chemical substance
  The level of expressed mRNA in the presence of chemical substance/The level of expressed mRNA in the absence of chemical substance: 1.1
Yeast gene YKL151C, incubated two hours with chemical substance
  The level of expressed mRNA in the presence of chemical substance/The level of expressed mRNA in the absence of chemical substance: 1.0
Yeast gene YKL153W, incubated two hours with chemical substance
  The level of expressed mRNA in the presence of chemical substance/The level of expressed mRNA in the absence of chemical substance: 0.7
